These results are taken from ChEMBL document CHEMBL4811258, “Potent Antimalarials with Development Potential Identified by Structure-Guided Computational Optimization of a Pyrrole-Based Dihydroorotate Dehydrogenase Inhibitor Series” (J Med Chem, 2021).

Experiment [1] can be described thus: Inhibition of Plasmodium vivax DHODH expressed in Escherichia coli BL21-DE3 using L-dihydroorotate as substrate by steady-state DCIP method.
A short description of experiment [2]: Inhibition of Plasmodium falciparum DHODH expressed in Escherichia coli BL21-DE3 using L-dihydroorotate as substrate by steady-state DCIP method.
Experiment [3] concerns Plasmodium falciparum.
The subject of experiment [4] is Plasmodium falciparum. The experiment is described as follows: microbe, parasite or virus in culture. Particulars: 3D7, 72 h.
The target in experiment [5] is Dihydroorotate dehydrogenase (quinone), mitochondrial (Homo sapiens, UniProt Q02127). It is filed as ADME.
Chain of Dihydroorotate dehydrogenase (quinone), mitochondrial (Q02127 whole entry): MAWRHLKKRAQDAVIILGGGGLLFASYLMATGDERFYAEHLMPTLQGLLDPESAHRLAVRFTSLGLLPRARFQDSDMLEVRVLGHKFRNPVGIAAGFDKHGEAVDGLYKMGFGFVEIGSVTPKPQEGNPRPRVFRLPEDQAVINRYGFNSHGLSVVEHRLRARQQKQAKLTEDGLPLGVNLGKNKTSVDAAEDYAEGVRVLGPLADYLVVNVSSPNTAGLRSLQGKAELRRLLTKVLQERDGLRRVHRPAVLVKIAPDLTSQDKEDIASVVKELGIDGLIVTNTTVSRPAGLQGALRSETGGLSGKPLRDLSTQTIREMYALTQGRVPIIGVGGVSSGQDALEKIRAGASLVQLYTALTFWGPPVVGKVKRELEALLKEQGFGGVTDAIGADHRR

What is called IC50 is the midpoint of a concentration-inhibition curve. A low value points to greater potency. Broadly, the EC50 is the concentration that produces a half-maximal response. Read a high EC50 as a less potent agent. `Cc1cc(C(C)NC(=O)c2[nH]c(C)c(Cc3ccc(C(F)(F)F)nc3)c2C)no1` (stereo in doubt; form 1): the IC50 in experiment [1] was 30 nM; in experiment [2], 65 nM. Further, the EC50 in experiment [3] was found to be 12 nM.
The matching figures for `Cc1c(C(=O)NC(C)c2nc[nH]n2)[nH]c(Cl)c1Cc1ccc(C(F)(F)F)nc1` (stereo in doubt; form 2): 63 nM, 200 nM and 40 nM.
`Cc1c(Cc2ccc(C(F)(F)F)nc2F)c[nH]c1C(=O)NCC(F)(F)F` came in with an EC50 in experiment [4] of 20 nM. Besides, the results for the IC50 in experiment [5], in experiment [1] and in experiment [2] were greater than 100000 nM, 53 nM and 79 nM, respectively.
With `Cc1cc(C(C)NC(=O)c2[nH]cc(-c3n[nH]c4cc(C(F)(F)F)ccc34)c2C)no1` (stereo in doubt; form 2), the figures for the half-inhibitory concentration (IC50) in experiment [1] and in experiment [2] were 69 nM and 560 nM, respectively. Also, the EC50 in experiment [3] amounted to 62 nM.
For the compound `Cc1nc(C(C)NC(=O)c2[nH]cc(Cc3ccc(C(F)(F)F)nc3)c2C)c[nH]1` (racemic), in experiment [4], the concentration giving a half-maximal response (EC50) was 380 nM. Further, the figures for the IC50 in experiment [5], in experiment [1] and in experiment [2] were greater than 100000 nM, 500 nM and 13000 nM, respectively.
The matching figures for `Cc1c(C2(c3ccc(C(F)(F)F)nc3)CC2)c[nH]c1C(=O)NC1CC1`: greater than 10000 nM, greater than 100000 nM, 11 nM and 19 nM.
For the compound `Cc1c(C2(c3ccc(C(F)(F)F)nc3)CC2)c[nH]c1C(=O)NC(C)c1cc(C(N)=O)[nH]n1` (racemic), the 50% inhibitory concentration (IC50) came to 180 nM in experiment [1] and 260 nM in experiment [2]. For the same compound, in experiment [3], the EC50 is 3000 nM.
For `Cc1c(C2(c3ccc(C(F)(F)F)c(F)c3)CC2)c[nH]c1C(=O)NC(C)c1nc[nH]n1` (stereo in doubt; form 1) the same measures were 61 nM, 110 nM and 29 nM.
`Cc1nc(C(C)NC(=O)c2[nH]cc(Cc3ccc(C(F)(F)F)nc3)c2C)no1` (racemic): in experiment [4], the EC50 stood at 190 nM. Besides, the IC50 in experiment [5] was greater than 100000 nM; in experiment [1] it was 100 nM; in experiment [2] it was 370 nM.
For `Cc1c(Cc2nc3ccccc3o2)c[nH]c1C(=O)NC1CC1`, the EC50 in experiment [4] worked out at 600 nM. Besides, the half-maximal inhibitory concentration (IC50) was greater than 100000 nM in experiment [5] and 670 nM in experiment [2].
In experiment [4], `Cc1cc(C(C)NC(=O)c2[nH]cc(C(C)c3ccc(C(F)(F)F)nc3)c2C)no1` (racemic) gave an EC50 of 3 nM. For the same compound, the IC50 in experiment [5] was greater than 100000 nM; in experiment [1], 74 nM; in experiment [2], 79 nM.
Consider `Cc1c(Cc2ccc(F)c3ccncc23)c[nH]c1C(=O)NC(C)c1nc[nH]n1` (stereo in doubt; form 1), for which the figures for the IC50 in experiment [1] and in experiment [2] were 29 nM and 44 nM, respectively. In experiment [3], this compound registered an EC50 of 9.5 nM.
For `Cc1cc(C(C)NC(=O)c2[nH]cc(Cc3ccc(C(F)(F)F)nc3)c2C)n[nH]1` (stereo in doubt; form 1) the same measures were 69 nM, 100 nM and 20 nM.
With `Cc1c(Cc2ccc(C(F)(F)F)nc2)c[nH]c1C(=O)NC(C)c1cnn(C)c1` (racemic), half-maximal inhibition in experiment [1] (IC50) was put at 62 nM. Further, in experiment [3], the midpoint of the response, the EC50, lay at 5.5 nM.
On to `Cc1cc(C(C)NC(=O)c2[nH]cc(-c3c[nH]c4cc(C(F)(F)F)ccc34)c2C)no1` (stereo in doubt; form 2), for which the IC50 in experiment [5] was greater than 100000 nM; in experiment [1], 58 nM; in experiment [2], 660 nM. The same compound yielded an EC50 in experiment [3] of 85 nM.
In the case of `Cc1c(C(=O)NC2CC2)[nH]c(Cl)c1Cc1ccc(C(F)(F)F)nc1`, the EC50 in experiment [4] is 32 nM. For the same compound, the IC50 is greater than 100000 nM in experiment [5], 17 nM in experiment [1] and 120 nM in experiment [2].
Turning to `Cc1[nH]c(C(=O)NC(C)c2cn[nH]c2)c(C)c1Cc1ccc(C(F)(F)F)nc1` (stereo in doubt; form 1), the IC50 was found to be 88 nM in experiment [1] and 87 nM in experiment [2]. Besides, in experiment [3], the EC50 was found to be 6 nM.
For `Cc1cc(C(C)NC(=O)c2[nH]cc(C3(c4ccc(C(F)(F)F)nc4)CC3)c2C)no1` (stereo in doubt; form 1) the same measures were 30 nM, 16 nM and 11 nM.
As to `Cc1[nH]c(C(=O)N[C@H](C)c2cn[nH]c2)c(C#N)c1Cc1ccc(C(F)(F)F)nc1` (stereo in doubt; form 2), the IC50 in experiment [1] amounted to 440 nM; in experiment [2], 660 nM. This compound gave an EC50 in experiment [3] of 170 nM.
`[2H]C([2H])(c1ccc(C(F)(F)F)nc1)c1c[nH]c(C(=O)NC(C)c2cc(C)on2)c1C` (stereo in doubt; form 1): the EC50 in experiment [4] was found to be 4.7 nM. Besides, it took 9.1 nM to reach half-maximal inhibition in experiment [1] (IC50).
As to `Cc1cc(C(C)NC(=O)c2[nH]c(C)c(Cc3ccc(C(F)(F)F)nc3)c2C#N)no1` (stereo in doubt; form 2), the IC50 was 99 nM in experiment [1] and 95 nM in experiment [2]. Besides, in experiment [3], the EC50 came to 64 nM.
For `Cc1c(Cc2ccc(C(F)(F)F)nc2)c[nH]c1C(=O)NC(C)c1cc(C(N)=O)[nH]n1` (racemic) the same measures were 430 nM, 650 nM and 51 nM.
`Cc1c(C2(c3cccc(C(F)(F)F)c3)CC2)c[nH]c1C(=O)NC(C)c1nc[nH]n1` (stereo in doubt; form 1): the 50% inhibitory concentration (IC50) is 40 nM in experiment [1] and 110 nM in experiment [2]. Moreover, the midpoint of the response in experiment [3], the EC50, lay at 48 nM.
`Cc1c(Cc2ccc(C(F)(F)F)nc2)c[nH]c1C(=O)NC(C)c1nc[nH]n1` (stereo in doubt; form 1): the IC50 in experiment [1] amounted to 110 nM; in experiment [2], 250 nM. Also, the EC50 in experiment [3] stood at 66 nM.
For the compound `Cc1c(Cc2ccc(C(F)(F)F)nc2)c[nH]c1C(=O)NC(C)c1cc(C#N)[nH]n1` (stereo in doubt; form 1), the IC50 in experiment [1] turned out to be 83 nM; in experiment [2] it was 120 nM. For the same compound, the response in experiment [3] was half-maximal at 17 nM (EC50).
In experiment [4], `COC(=O)c1c(Cc2ccc(C(F)(F)F)nc2)c[nH]c1C(=O)NC1CC1` registered an EC50 of 1400 nM. Further, half-maximal inhibition in experiment [2] (IC50) required 6400 nM.
For the compound `Cc1c(Cc2ccc(C(F)(F)F)cc2F)c[nH]c1C(=O)NC(C)c1nc[nH]n1` (stereo in doubt; form 1), the 50% inhibitory concentration (IC50) is 73 nM in experiment [1] and 35000 nM in experiment [2]. Also, in experiment [3], the EC50 turned out to be 150 nM.
Take `Cc1c(Cc2ccc(C(F)(F)F)cc2F)c[nH]c1C(=O)NC1CC1`: the IC50 in experiment [5] was greater than 100000 nM; in experiment [2] it was 44 nM.
Turning to `Cc1c(Cc2ccc(C(F)(F)F)nc2)c[nH]c1C(=O)NC(C)c1nc[nH]n1` (racemic), the IC50 in experiment [1] is 120 nM; in experiment [2], 260 nM. Besides, the response in experiment [3] was half-maximal at 160 nM (EC50).
`CNC(=O)[C@@H](C)NC(=O)c1[nH]cc(Cc2ccc(C(F)(F)F)nc2)c1C`: the EC50 in experiment [4] amounted to 8900 nM. Further, the midpoint of inhibition in experiment [2], the IC50, lay at 39000 nM.
The matching figures for `Cc1c(Cc2ccc(C(F)(F)F)nc2)c[nH]c1C(=O)NC(C)c1ncn(C)n1` (racemic): 13000 nM and 4000 nM.
For the compound `Cc1c(C(=O)NC(C)c2nc[nH]n2)[nH]c(Cl)c1Cc1ccc(C(F)(F)F)nc1` (stereo in doubt; form 4), the concentration for half-maximal inhibition (IC50) in experiment [1] worked out at 100 nM; in experiment [2], 290 nM. This compound yielded an EC50 in experiment [3] of 130 nM.
For `Cc1c(Cc2ccc(C(F)(F)F)nc2)c[nH]c1C(=O)NC(C)c1cc(C(N)=O)[nH]n1` (stereo in doubt; form 1) the same measures were 230 nM, 35000 nM and 24 nM.
Turning to `Cc1cc(C(C)NC(=O)c2[nH]cc(Cc3ccc(C(F)(F)F)nc3)c2C)no1` (racemic), the IC50 in experiment [1] worked out at 30 nM. Besides, the EC50 in experiment [3] was 9 nM.
Turning to `Cc1c(-c2n[nH]c3nc(C(F)(F)F)ccc23)c[nH]c1C(=O)N1CC(F)(F)C1`, the EC50 in experiment [4] is greater than 10000 nM. Further, the IC50 in experiment [2] worked out at 2100 nM.
For `Cc1c(-c2c[nH]c3cc(C(F)(F)F)ccc23)c[nH]c1C(=O)NC1CC1` the same measures were 190 nM and 1600 nM.
With `CNC(=O)c1c(Cc2ccc(C(F)(F)F)nc2)c[nH]c1C(=O)NC1CC1`, the concentration for a half-maximal effect (EC50) in experiment [4] came out at 3400 nM. Also, the IC50 in experiment [2] was determined as 16000 nM.
For `Cc1c(Cc2ccc(C(F)(F)F)nc2)c[nH]c1C(=O)NC(C)c1cn[nH]c1` (racemic), the IC50 in experiment [1] was 48 nM; in experiment [2], 61 nM. This compound had an EC50 in experiment [3] of 9 nM.
For `Cc1cc(C(C)NC(=O)c2[nH]cc(Cc3ccc(C(F)(F)F)cc3)c2C)no1` (stereo in doubt; form 1) the same measures were 13 nM, 46 nM and 170 nM.
In turn, `Cc1c(Cc2ccc(C(F)(F)F)nc2)c[nH]c1C(=O)NC1COCC1O` (stereo not drawn) displayed an EC50 in experiment [4] of 6400 nM. This compound also had an IC50 in experiment [2] of 61000 nM.
Regarding `Cc1[nH]c(C(=O)NC(C)c2cnn(C)c2)c(C)c1Cc1ccc(C(F)(F)F)nc1` (stereo in doubt; form 2), the results for the IC50 in experiment [1] and in experiment [2] were 76 nM and 88 nM, respectively. Besides, the midpoint of the response in experiment [3], the EC50, lay at 17 nM.
Turning to `Cc1c(-c2n[nH]c3cc(C(F)(F)F)ccc23)c[nH]c1C(=O)N1CC(F)(F)C1`, the EC50 in experiment [4] came out at 480 nM. For the same compound, 3600 nM corresponded to half-maximal inhibition in experiment [2] (IC50).
The matching figures for `Cc1c(Cc2ccc(C(F)(F)F)nc2)c[nH]c1C(=O)N[C@H](C)CO`: 2100 nM and 2700 nM.
In turn, `CCOC(=O)c1[nH]cc(Cc2nc3ccccc3o2)c1C` displayed an EC50 in experiment [4] of 1600 nM. Besides, the results for the IC50 in experiment [5] and in experiment [2] were greater than 100000 nM and 900 nM, respectively.
For the compound `COC1COCC1NC(=O)c1[nH]cc(Cc2ccc(C(F)(F)F)nc2)c1C` (stereo not drawn), the concentration giving a half-maximal response (EC50) in experiment [4] turned out to be 1100 nM. Besides, the IC50 in experiment [2] came to 17000 nM.
The matching figures for `Cc1c(Cc2ccc(C(F)(F)F)nc2)c[nH]c1C(=O)NC1COC1`: 74 nM and 110 nM.
Regarding `Cc1[nH]c(C(=O)NC(C)c2nc[nH]n2)c(C)c1Cc1ccc(C(F)(F)F)nc1` (stereo in doubt; form 1), the values for the IC50 in experiment [1] and in experiment [2] were 140 nM and 290 nM, respectively. In experiment [3], this compound had an EC50 of 140 nM.
